Structures are written as SMILES. Where only a bound is given, the exact number is not on record here.

Assay [1] addresses T1, Leukotriene A-4 hydrolase (Homo sapiens, UniProt P09960).
T1 sequence (P09960 whole entry): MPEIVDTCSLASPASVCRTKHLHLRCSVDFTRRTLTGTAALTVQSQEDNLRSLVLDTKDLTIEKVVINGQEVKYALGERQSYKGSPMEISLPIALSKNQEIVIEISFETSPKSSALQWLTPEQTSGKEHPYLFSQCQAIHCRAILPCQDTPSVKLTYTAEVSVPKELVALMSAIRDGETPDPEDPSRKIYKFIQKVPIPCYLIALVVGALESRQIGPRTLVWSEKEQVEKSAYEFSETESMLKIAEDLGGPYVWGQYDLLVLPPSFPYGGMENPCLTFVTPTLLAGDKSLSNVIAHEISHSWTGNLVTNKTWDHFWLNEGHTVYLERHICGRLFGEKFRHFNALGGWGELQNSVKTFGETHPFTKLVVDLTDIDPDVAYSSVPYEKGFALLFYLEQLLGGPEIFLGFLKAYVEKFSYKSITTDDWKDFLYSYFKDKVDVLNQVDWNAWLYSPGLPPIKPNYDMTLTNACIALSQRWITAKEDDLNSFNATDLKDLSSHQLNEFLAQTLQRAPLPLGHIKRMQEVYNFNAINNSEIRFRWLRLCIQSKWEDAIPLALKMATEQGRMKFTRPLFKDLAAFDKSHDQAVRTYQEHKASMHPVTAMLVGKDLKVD
Briefly: Inhibition of human recombinant LTA4 hydrolase assessed as LTB4 production after 30 mins by ELISA.

The target in assay [2] is T1, Leukotriene A-4 hydrolase. Briefly: Inhibition of human recombinant LTA4 aminopeptidase activity spectrophotometric analysis.
Assay [3] concerns Blood. Briefly: Inhibition of LTB4 production in human whole blood after 15 mins by ELISA. It is filed as functional, tissue-based. The following applies: 0.25 h. For orientation: ELISA stands for enzyme-linked immunosorbent assay.
Assay [4] has as its system Blood. Briefly: Inhibition of TxB2 production in human whole blood after 15 mins by ELISA. Type of assay: functional, tissue-based. As to conditions: 0.25 h.
For assay [5], the target named is T2, Angiotensin-converting enzyme (Oryctolagus cuniculus, UniProt P12822).
T2 sequence (P12822 whole entry): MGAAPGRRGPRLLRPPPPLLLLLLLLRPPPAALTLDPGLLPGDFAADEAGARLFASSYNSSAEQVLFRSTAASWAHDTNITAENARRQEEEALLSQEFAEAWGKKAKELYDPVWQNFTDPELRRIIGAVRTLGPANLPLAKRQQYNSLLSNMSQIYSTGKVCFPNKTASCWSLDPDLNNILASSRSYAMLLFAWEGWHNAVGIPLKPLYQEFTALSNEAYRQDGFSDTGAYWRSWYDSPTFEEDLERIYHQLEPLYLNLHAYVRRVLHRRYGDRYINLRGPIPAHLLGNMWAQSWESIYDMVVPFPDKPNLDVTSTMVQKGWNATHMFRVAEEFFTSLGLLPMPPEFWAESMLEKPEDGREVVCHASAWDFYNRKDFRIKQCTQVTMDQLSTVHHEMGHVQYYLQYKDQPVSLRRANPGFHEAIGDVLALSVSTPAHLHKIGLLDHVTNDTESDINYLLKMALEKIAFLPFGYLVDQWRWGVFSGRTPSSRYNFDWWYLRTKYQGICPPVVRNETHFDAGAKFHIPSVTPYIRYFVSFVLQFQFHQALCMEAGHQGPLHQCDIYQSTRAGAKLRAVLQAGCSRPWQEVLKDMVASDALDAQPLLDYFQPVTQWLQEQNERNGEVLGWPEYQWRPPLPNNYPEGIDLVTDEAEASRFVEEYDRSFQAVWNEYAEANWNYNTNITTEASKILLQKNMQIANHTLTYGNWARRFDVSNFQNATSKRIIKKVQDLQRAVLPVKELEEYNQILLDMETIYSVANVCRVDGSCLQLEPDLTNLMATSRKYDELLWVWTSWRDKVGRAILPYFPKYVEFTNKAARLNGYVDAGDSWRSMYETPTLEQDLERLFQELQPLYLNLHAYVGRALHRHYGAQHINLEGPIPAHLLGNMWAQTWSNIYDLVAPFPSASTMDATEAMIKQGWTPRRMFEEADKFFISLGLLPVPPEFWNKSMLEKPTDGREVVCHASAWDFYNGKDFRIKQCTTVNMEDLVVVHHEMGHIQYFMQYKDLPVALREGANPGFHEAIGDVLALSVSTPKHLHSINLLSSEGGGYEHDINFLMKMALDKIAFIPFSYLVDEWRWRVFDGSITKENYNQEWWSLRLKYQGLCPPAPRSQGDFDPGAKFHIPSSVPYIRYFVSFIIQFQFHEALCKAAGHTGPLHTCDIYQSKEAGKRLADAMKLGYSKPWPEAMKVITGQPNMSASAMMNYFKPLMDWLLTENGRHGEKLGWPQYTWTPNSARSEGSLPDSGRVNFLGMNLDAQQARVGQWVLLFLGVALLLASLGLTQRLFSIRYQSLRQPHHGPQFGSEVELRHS
Briefly: Inhibition of rabbit lung ACE.

With `C[C@H](N)C(=O)CCCC[C@@H](C)C(=O)O`, the IC50 (in general, the concentration needed to halve the response being measured) in assay [1] is 0.57 µM; in assay [2], 0.3 µM; in the assay on Blood [3], 7 µM; with Blood [4], > 30 µM; in assay [5], > 100 µM.

For the origin of these results see ChEMBL document CHEMBL1158279, “Isolation and structure of leukotriene-A4 hydrolase inhibitor: 8(S)-amino-2(R)-methyl-7-oxononanoic acid produced by Streptomyces diastaticus” (J Nat Prod, 1996).
